The source of these data is patent publication US20040192638A1, “Method and composition for prolonging the residence time of drugs in the gut” (priority 2001, published 2004).

In data set [1] the test system is rat small intestine. Put plainly: SSP myoelectric recording after intragastric (per os) or intraperitoneal cGMP. Particulars: data not shown. It is filed as in vivo. The procedure:
For intragastric infusion, rats (n=4) were lightly sedated with Halothane in order to insert a gastric tube per os and infused with 0.3 ml of 10 mM cGMP in saline directly into the lumen of the stomach. Thirty minutes of control myoelectric recording were always performed before infusion of any substance. Five to seven minutes after infusion, the rats were reconnected to the recorder. […] This procedure was repeated with the same rats on a different day with 0.3 ml 100 mM cGMP (equal to 100× the minimal dose required to increase SSP frequency by infusion into the lumen of the small intestine) and on a separate day with 0.3 ml saline as a vehicle control. Post-oral dosing myoelectric recordings were 90 minutes in duration.
Neither cGMP (1.0 ml of 100 mM) injected intraperitoneally nor cGMP (0.3 ml of 10 mM and 100 mM) introduced into the stomach per os initiated the SSP pattern in the small intestine (data not shown).

Data set [2] is described as follows: Effect of cGMP on drug uptake: atenolol in blood after intraduodenal infusion. The data set is classed as in vivo, rat. Particulars: atenolol 1 mg/kg intraduodenal; 0.2 ml of 10 mM cGMP 15 minutes prior to and 15 minutes after atenolol; same rats, FIG. 4. The procedure: Thus, a model drug, atenolol, was introduced directly into the lumen of the rat's small intestine, and the concentration of atenolol was measured in the blood over time. The blood values and concentration kinetics of the model drug were compared after infusion into the intestine alone or when infused with cGMP. Atenolol was quantified using conventional liquid chromatography/mass spectrometry methods.
Outbred male rats (Sprague Dawley, Harlan Sprague Dawley, Inc., Indianapolis, Ind.) were housed singly and maintained on a 12-hour light/12-hour dark cycle. All rats used in this bioassay procedure were uninfected with tapeworm. For intestinal infusion, rats (n=2) were lightly sedated, and an indwelling cannula was implanted into the duodenal lumen in each of two rats. […] In brief, the animal preparation involved the following: a cannula was surgically implanted into the duodenal region of each test rat. The cannula extended from the lumen of the duodenum, across the peritoneum, under the skin to the abdominal wall, and finally to an exit from the skin at the nape of the neck. […] During the surgery, both cannulas were filled with sterile saline and plugged with metal pins. Rats were allowed at least five days to recover from implantation surgery before any manipulation occurred. All rats were housed individually after surgery to prevent damage to the cannulas. […]

Regarding `Nc1nc2c(ncn2C2OC3COP(=O)(O)OC3C2O)c(=O)[nH]1` (stereo not shown) [cGMP, guanosine cyclic 3′, 5′-hydrogen phosphate], the “initiation of SSP pattern in the small intestine (in words)” value in data set [1] (0.3 ml of 10 mM into the stomach per os), in data set [1] (0.3 ml of 100 mM into the stomach per os) and in data set [1] (1.0 ml of 100 mM injected intraperitoneally) was “lack of intestinal response” each time. The “amount of atenolol in the blood over the 20-minute period, with cGMP versus atenolol alone” value in data set [2] is recorded as “almost doubles”.
